Tested on: 253994-281-T-J1-PDC KRAS-mutant spheroids with HUVEC/MSC, viability
Test: Anticancer human tumor 253994-281-T-J1-PDC patient-derived colorectal carcinoma cell line growth inhibition [KRAS2]
Conditions: for IC50: curve of first compound; for viability, T/C: stronger effect = lower value
Procedure, shortened: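 Combination screen of spheroid viability in tumor-cell co-cultures with endothelial (HUVEC) and mesenchymal stem cell stroma. Each agent was tested in half-log dilutions, topping at clinical Cmax or at 10 microM without a known Cmax.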

[1] = second compound 0.0316 µM, first compound 0.0316 µM
[2] = second compound 0.0316 µM, first compound 0.1 µM
[3] = second compound 0.1 µM, first compound 0.0316 µM
[4] = second compound 0.1 µM, first compound 0.1 µM
[5] = second compound 0.316 µM, first compound 0.0316 µM
[6] = second compound 0.316 µM, first compound 0.1 µM
[7] = second compound 1 µM, first compound 0.0316 µM
[8] = second compound 1 µM, first compound 0.1 µM
[9] = second compound 3.16 µM, first compound 0.0316 µM
[10] = second compound 3.16 µM, first compound 0.1 µM
[11] = second compound 0.0316 µM, first compound 0.316 µM
[12] = second compound 0.0316 µM, first compound 1 µM
[13] = second compound 0.0316 µM, first compound 3.16 µM
[14] = second compound 0.0316 µM, first compound 10 µM
[15] = second compound 0.1 µM, first compound 0.316 µM
[16] = second compound 0.1 µM, first compound 1 µM
[17] = second compound 0.1 µM, first compound 3.16 µM
[18] = second compound 0.1 µM, first compound 10 µM
[19] = second compound 0.316 µM, first compound 0.316 µM
[20] = second compound 0.316 µM, first compound 1 µM
[21] = second compound 0.316 µM, first compound 3.16 µM
[22] = second compound 0.316 µM, first compound 10 µM
[23] = second compound 1 µM, first compound 0.316 µM
[24] = second compound 1 µM, first compound 1 µM
[25] = second compound 1 µM, first compound 3.16 µM
[26] = second compound 1 µM, first compound 10 µM
[27] = second compound 3.16 µM, first compound 0.316 µM
[28] = second compound 3.16 µM, first compound 1 µM
[29] = second compound 3.16 µM, first compound 3.16 µM
[30] = second compound 3.16 µM, first compound 10 µM
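Note: spheroids exposed to agents for seven days before readout.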
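Throughout, for viability, T/C: percent of DMSO vehicle control viability.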

Compound | IC50 (second compound 0.0316 µM) [nM] | IC50 (second compound 0.1 µM) [nM] | IC50 (second compound 0.316 µM) [nM] | IC50 (second compound 1 µM) [nM] | IC50 (second compound 3.16 µM) [nM] | viability, T/C [1] [%] | viability, T/C [2] [%] | viability, T/C [3] [%] | viability, T/C [4] [%] | viability, T/C [5] [%] | viability, T/C [6] [%] | viability, T/C [7] [%] | viability, T/C [8] [%] | viability, T/C [9] [%] | viability, T/C [10] [%] | viability, T/C [11] [%] | viability, T/C [12] [%] | viability, T/C [13] [%] | viability, T/C [14] [%] | viability, T/C [15] [%] | other results
CN(C)C/C=C/C(=O)Nc1cc2c(Nc3ccc(F)c(Cl)c3)ncnc2cc1O[C@H]1CCOC1 + C=CC(=O)N1CCN(c2nc(OCC3CCCN3C)nc3c2CCN(c2cccc4cccc(C)c24)C3)CC1CC#N | > 100 | > 100 | > 100 | > 100 | 0.72 | 88.5 | 54 | 69.2 | 53.8 | 78.3 | 66.5 | 73.1 | 62.2 | 19.6 | 5.55 | – | – | – | – | – | viability, T/C (second compound 0.0316 µM, first compound 0.000316 µM): 95.7%; viability, T/C (second compound 0.0316 µM, first compound 0.001 µM): 89.4%; viability, T/C (second compound 0.0316 µM, first compound 0.00316 µM): 92.3%; viability, T/C (second compound 0.0316 µM, first compound 0.01 µM): 95.7%; viability, T/C (second compound 0.1 µM, first compound 0.000316 µM): 83.2%; viability, T/C (second compound 0.1 µM, first compound 0.001 µM): 91.5%; viability, T/C (second compound 0.1 µM, first compound 0.00316 µM): 76.6%; viability, T/C (second compound 0.1 µM, first compound 0.01 µM): 86.1%; viability, T/C (second compound 0.316 µM, first compound 0.000316 µM): 95.7%; viability, T/C (second compound 0.316 µM, first compound 0.001 µM): 81.3%; viability, T/C (second compound 0.316 µM, first compound 0.00316 µM): 87.5%; viability, T/C (second compound 0.316 µM, first compound 0.01 µM): 77.4%; viability, T/C (second compound 1 µM, first compound 0.000316 µM): 97.9%; viability, T/C (second compound 1 µM, first compound 0.001 µM): 108%; viability, T/C (second compound 1 µM, first compound 0.00316 µM): 83.1%; viability, T/C (second compound 1 µM, first compound 0.01 µM): 69.4%; viability, T/C (second compound 3.16 µM, first compound 0.000316 µM): 53.8%; viability, T/C (second compound 3.16 µM, first compound 0.001 µM): 48.5%; viability, T/C (second compound 3.16 µM, first compound 0.00316 µM): 4.58%; viability, T/C (second compound 3.16 µM, first compound 0.01 µM): 22%
COC(=O)c1ccc2c(C(=Nc3ccc(N(C)C(=O)CN4CCN(C)CC4)cc3)c3ccccc3)c(O)[nH]c2c1 + C=CC(=O)N1CCN(c2nc(OCC3CCCN3C)nc3c2CCN(c2cccc4cccc(C)c24)C3)CC1CC#N | 4960 | 4290 | 3340 | 2310 | < 31.6 | 101 | 112 | 94.2 | 88.3 | 109 | 85.9 | 90.7 | 85.8 | 5.16 | 10.4 | 98.7 | 96.4 | 76.3 | 9.63 | 86.7 | viability, T/C [16]: 75.5%; viability, T/C [17]: 66.9%; viability, T/C [18]: 13.4%; viability, T/C [19]: 80.4%; viability, T/C [20]: 72.5%; viability, T/C [21]: 59.4%; viability, T/C [22]: 15.7%; viability, T/C [23]: 66.9%; viability, T/C [24]: 72.7%; viability, T/C [25]: 44%; viability, T/C [26]: 0.21%; viability, T/C [27]: 18.4%; viability, T/C [28]: 9.87%; viability, T/C [29]: 0.17%; viability, T/C [30]: 0.22%
O=C(c1cc(Cc2n[nH]c(=O)c3ccccc23)ccc1F)N1CCN(C(=O)C2CC2)CC1 + C=CC(=O)N1CCN(c2nc(OCC3CCCN3C)nc3c2CCN(c2cccc4cccc(C)c24)C3)CC1CC#N | > 10000 | > 10000 | > 10000 | > 10000 | < 31.6 | 108 | 100 | 83.1 | 101 | 80.3 | 81 | 87.4 | 113 | 32.7 | 13 | 95.8 | 90.5 | 90.5 | 82.8 | 94.1 | viability, T/C [16]: 87.1%; viability, T/C [17]: 82.1%; viability, T/C [18]: 85.2%; viability, T/C [19]: 83.8%; viability, T/C [20]: 73%; viability, T/C [21]: 79.6%; viability, T/C [22]: 89.6%; viability, T/C [23]: 88.2%; viability, T/C [24]: 90.7%; viability, T/C [25]: 81.4%; viability, T/C [26]: 80.8%; viability, T/C [27]: 15.7%; viability, T/C [28]: 24.1%; viability, T/C [29]: 21%; viability, T/C [30]: 21.1%

From PubChem BioAssay AID1963874 (Molecular Pharmacology Branch, DTP, NCI, 2024)
